Experimental data from the supplement of paper PMC13380429.

What was measured:
[1] = test system: A549-ACE2 infected with SARS-CoV-2; experiment: cell count relative to DMSO; higher = less toxic; details: 24 h
Caco-2 [2] = experiment: cell viability relative to DMSO; higher = less toxic; details: 72 h
Calu-3 [3] = experiment: as above; details: 72 h
HepG2 [4] = experiment: as above; details: 72 h
U2OS [5] = experiment: as above; details: 72 h
Vero E6 [6] = experiment: as above; details: 72 h
[7] = test system: A549-ACE2 infected with SARS-CoV-2; experiment: SARS-CoV-2 infection rate relative to DMSO; higher = more infection; details: 24 h
A549-ACE2 [8] = experiment: phospholipidosis EC50; higher = less potent phospholipidosis inducer
A549-ACE2 [9] = experiment: drug-induced phospholipidosis relative to tamoxifen; higher = more phospholipidosis
[10] = test system: A549-ACE2 infected with SARS-CoV-2; experiment: morphology score (similarity to uninfected cells); higher = more like uninfected cells; details: 24 h
Caco-2 [11] = experiment: relative viability EC50 (midpoint between 100% and the lowest measured viability); higher = less toxic; details: 72 h
Calu-3 [12] = experiment: as above; details: 72 h
HepG2 [13] = experiment: as above; details: 72 h
U2OS [14] = experiment: as above; details: 72 h
Vero E6 [15] = experiment: as above; details: 72 h
Caco-2 [16] = experiment: drug sensitivity score (DSS) for viability; higher = more toxic; extreme values may be limits of the assay; details: 72 h
Calu-3 [17] = experiment: as above; details: 72 h
HepG2 [18] = experiment: as above; details: 72 h
U2OS [19] = experiment: as above; details: 72 h
Vero E6 [20] = experiment: as above; details: 72 h

CN1CCCN(C(c2ccccc2)c2ccc(Cl)cc2)CC1 (centres undefined) [homochlorcyclizine]
Details	SARS-CoV-2 infection rate [%]	cell count [%]	cell viability [%]	morphology score	phospholipidosis EC50 [µM]
A549-ACE2 [8], 24 h	–	–	–	–	6.4
A549-ACE2 [8], 48 h	–	–	–	–	7.14
A549-ACE2 [8], 72 h	–	–	–	–	10.5
Caco-2 [2], 1 nM	–	–	97.5	–	–
Caco-2 [2], 10 nM	–	–	94.7	–	–
Caco-2 [2], 100 nM	–	–	90.5	–	–
Caco-2 [2], 1000 nM	–	–	99.6	–	–
Caco-2 [2], 10000 nM	–	–	101	–	–
Calu-3 [3], 1 nM	–	–	96.8	–	–
Calu-3 [3], 10 nM	–	–	94.3	–	–
Calu-3 [3], 100 nM	–	–	100	–	–
Calu-3 [3], 1000 nM	–	–	102	–	–
Calu-3 [3], 10000 nM	–	–	99.3	–	–
HepG2 [4], 1 nM	–	–	98.7	–	–
HepG2 [4], 10 nM	–	–	103	–	–
HepG2 [4], 100 nM	–	–	104	–	–
HepG2 [4], 1000 nM	–	–	108	–	–
HepG2 [4], 10000 nM	–	–	79.6	–	–
U2OS [5], 1 nM	–	–	99.8	–	–
U2OS [5], 10 nM	–	–	95.7	–	–
U2OS [5], 100 nM	–	–	104	–	–
U2OS [5], 1000 nM	–	–	99.2	–	–
U2OS [5], 10000 nM	–	–	97.1	–	–
Vero E6 [6], 1 nM	–	–	97.9	–	–
Vero E6 [6], 10 nM	–	–	99.5	–	–
Vero E6 [6], 100 nM	–	–	95.2	–	–
Vero E6 [6], 1000 nM	–	–	96.4	–	–
Vero E6 [6], 10000 nM	–	–	102	–	–
[1], 0.3 µM	–	102	–	–	–
[1], 3 µM	–	117	–	–	–
[1], 10 µM	–	113	–	–	–
[1], 30 µM	–	95	–	–	–
[7], 0.3 µM	97	–	–	–	–
[7], 3 µM	51	–	–	–	–
[7], 10 µM	20	–	–	–	–
[7], 30 µM	19	–	–	–	–
[10], 0.3 µM	–	–	–	0.01	–
[10], 3 µM	–	–	–	0.71	–
[10], 10 µM	–	–	–	0.84	–
[10], 30 µM	–	–	–	0.53	–

drug-induced phospholipidosis [%], A549-ACE2 [9]
Details	0.3 µM	0.833333 µM	3.33333 µM	6.66667 µM	10 µM	30 µM
24 h	1.65	3.27	20.6	54.6	81	102
48 h	3.21	3.5	22.2	49.2	82.5	107
72 h	7.01	3.95	24.7	47.4	80.1	134

Details	drug sensitivity score	relative viability EC50 [µM]
Caco-2 [11]	–	> 10
Caco-2 [16]	0	–
Calu-3 [12]	–	> 10
Calu-3 [17]	0	–
HepG2 [13]	–	> 10
HepG2 [18]	0.4	–
U2OS [14]	–	> 10
U2OS [19]	0	–
Vero E6 [15]	–	> 10
Vero E6 [20]	0	–

OC1(c2ccc(Cl)c(C(F)(F)F)c2)CCN(CCCC(c2ccc(F)cc2)c2ccc(F)cc2)CC1 [penfluridol]
Details	SARS-CoV-2 infection rate [%]	cell count [%]	cell viability [%]	morphology score	phospholipidosis EC50 [µM]
A549-ACE2 [8], 24 h	–	–	–	–	0.874
Caco-2 [2], 1 nM	–	–	87.3	–	–
Caco-2 [2], 10 nM	–	–	74.2	–	–
Caco-2 [2], 100 nM	–	–	96.5	–	–
Caco-2 [2], 1000 nM	–	–	82.2	–	–
Caco-2 [2], 10000 nM	–	–	0.3	–	–
Calu-3 [3], 1 nM	–	–	102	–	–
Calu-3 [3], 10 nM	–	–	95.2	–	–
Calu-3 [3], 100 nM	–	–	100	–	–
Calu-3 [3], 1000 nM	–	–	93.1	–	–
Calu-3 [3], 10000 nM	–	–	1	–	–
HepG2 [4], 1 nM	–	–	106	–	–
HepG2 [4], 10 nM	–	–	108	–	–
HepG2 [4], 100 nM	–	–	104	–	–
HepG2 [4], 1000 nM	–	–	103	–	–
HepG2 [4], 10000 nM	–	–	0.2	–	–
U2OS [5], 1 nM	–	–	99.4	–	–
U2OS [5], 10 nM	–	–	100	–	–
U2OS [5], 100 nM	–	–	104	–	–
U2OS [5], 1000 nM	–	–	93.2	–	–
U2OS [5], 10000 nM	–	–	3	–	–
Vero E6 [6], 1 nM	–	–	105	–	–
Vero E6 [6], 10 nM	–	–	96.3	–	–
Vero E6 [6], 100 nM	–	–	94.1	–	–
Vero E6 [6], 1000 nM	–	–	97.8	–	–
Vero E6 [6], 10000 nM	–	–	0.1	–	–
[1], 0.1 µM	–	101	–	–	–
[1], 0.3 µM	–	94	–	–	–
[1], 1 µM	–	113	–	–	–
[1], 3 µM	–	95	–	–	–
[7], 0.1 µM	100	–	–	–	–
[7], 0.3 µM	102	–	–	–	–
[7], 1 µM	74	–	–	–	–
[7], 3 µM	8	–	–	–	–
[10], 0.1 µM	–	–	–	0.06	–
[10], 0.3 µM	–	–	–	0.27	–
[10], 1 µM	–	–	–	0.55	–
[10], 3 µM	–	–	–	0.86	–

drug-induced phospholipidosis [%], A549-ACE2 [9]
Details	0.3 µM	0.833333 µM	3.33333 µM	6.66667 µM
24 h	12.8	30.2	64.4	48.3
48 h	13.8	28.2	67.6	–
72 h	16.8	26.4	77.7	–

Details	drug sensitivity score	relative viability EC50 [µM]
Caco-2 [11]	–	1.83
Caco-2 [16]	8.4	–
Calu-3 [12]	–	2.6
Calu-3 [17]	6.5	–
HepG2 [13]	–	3.34
HepG2 [18]	5.3	–
U2OS [14]	–	2.6
U2OS [19]	6.4	–
Vero E6 [15]	–	3
Vero E6 [20]	5.9	–

c1cnc(N2CCN(Cc3ccc4c(c3)OCO4)CC2)nc1 [piribedil]
Details	SARS-CoV-2 infection rate, [7] [%]	cell count, [1] [%]	cell viability, Caco-2 [2] [%]	cell viability, Calu-3 [3] [%]	cell viability, HepG2 [4] [%]	cell viability, U2OS [5] [%]	cell viability, Vero E6 [6] [%]	morphology score, [10]
1 nM	–	–	106	110	98.9	104	100	–
10 nM	–	–	96.7	98	112	98.5	105	–
100 nM	–	–	95.8	99.3	98.9	103	100	–
0.3 µM	109	98	–	–	–	–	–	-0.23
1000 nM	–	–	92.9	89.5	107	98	98.1	–
3 µM	104	96	–	–	–	–	–	-0.1
10 µM	99	97	–	–	–	–	–	-0.05
10000 nM	–	–	90.3	102	102	99.9	94.4	–
30 µM	88	104	–	–	–	–	–	0.26

drug-induced phospholipidosis [%], A549-ACE2 [9]
Details	0.3 µM	0.833333 µM	3.33333 µM	6.66667 µM	10 µM	30 µM
24 h	0.73	-0.78	-1.88	-1.98	-0.73	4.07
48 h	1.04	-0.48	-0.16	0.15	0.48	5.06
72 h	3.05	-0.292	-0.287	2.2	1.92	7.77

Details	drug sensitivity score	relative viability EC50 [µM]
Caco-2 [11]	–	> 10
Caco-2 [16]	0	–
Calu-3 [12]	–	> 10
Calu-3 [17]	0	–
HepG2 [13]	–	> 10
HepG2 [18]	0	–
U2OS [14]	–	> 10
U2OS [19]	0	–
Vero E6 [15]	–	> 10
Vero E6 [20]	0	–

CCCOC(C(=O)OC1CCN(C)CC1)(c1ccccc1)c1ccccc1 [propiverine]
Details	SARS-CoV-2 infection rate [%]	cell count [%]	cell viability [%]	morphology score	phospholipidosis EC50 [µM]
A549-ACE2 [8], 24 h	–	–	–	–	2.8
A549-ACE2 [8], 48 h	–	–	–	–	4.22
A549-ACE2 [8], 72 h	–	–	–	–	5.23
Caco-2 [2], 1 nM	–	–	102	–	–
Caco-2 [2], 10 nM	–	–	102	–	–
Caco-2 [2], 100 nM	–	–	102	–	–
Caco-2 [2], 1000 nM	–	–	95.5	–	–
Caco-2 [2], 10000 nM	–	–	89.7	–	–
Calu-3 [3], 1 nM	–	–	93.5	–	–
Calu-3 [3], 10 nM	–	–	95.1	–	–
Calu-3 [3], 100 nM	–	–	100	–	–
Calu-3 [3], 1000 nM	–	–	105	–	–
Calu-3 [3], 10000 nM	–	–	80.4	–	–
HepG2 [4], 1 nM	–	–	106	–	–
HepG2 [4], 10 nM	–	–	109	–	–
HepG2 [4], 100 nM	–	–	104	–	–
HepG2 [4], 1000 nM	–	–	117	–	–
HepG2 [4], 10000 nM	–	–	78	–	–
U2OS [5], 1 nM	–	–	107	–	–
U2OS [5], 10 nM	–	–	99	–	–
U2OS [5], 100 nM	–	–	99.5	–	–
U2OS [5], 1000 nM	–	–	97.8	–	–
U2OS [5], 10000 nM	–	–	96.8	–	–
Vero E6 [6], 1 nM	–	–	103	–	–
Vero E6 [6], 10 nM	–	–	95	–	–
Vero E6 [6], 100 nM	–	–	105	–	–
Vero E6 [6], 1000 nM	–	–	96.4	–	–
Vero E6 [6], 10000 nM	–	–	98.4	–	–
[1], 0.3 µM	–	101	–	–	–
[1], 3 µM	–	119	–	–	–
[1], 10 µM	–	120	–	–	–
[1], 30 µM	–	110	–	–	–
[7], 0.3 µM	95	–	–	–	–
[7], 3 µM	51	–	–	–	–
[7], 10 µM	17	–	–	–	–
[7], 30 µM	11	–	–	–	–
[10], 0.3 µM	–	–	–	0.19	–
[10], 3 µM	–	–	–	0.77	–
[10], 10 µM	–	–	–	0.9	–
[10], 30 µM	–	–	–	0.74	–

drug-induced phospholipidosis [%], A549-ACE2 [9]
Details	0.3 µM	0.833333 µM	3.33333 µM	6.66667 µM	10 µM	30 µM
24 h	2.28	8.59	66.7	91.7	105	109
48 h	4.59	4.15	46.3	84.9	98.8	115
72 h	4.64	4.08	43.7	80.2	95.8	123

Details	drug sensitivity score	relative viability EC50 [µM]
Caco-2 [11]	–	> 10
Caco-2 [16]	0	–
Calu-3 [12]	–	> 10
Calu-3 [17]	0.4	–
HepG2 [13]	–	> 10
HepG2 [18]	0.4	–
U2OS [14]	–	> 10
U2OS [19]	0	–
Vero E6 [15]	–	> 10
Vero E6 [20]	0	–
